Patent US20210087217A1, “NUCLEOTIDE HEMI-SULFATE SALT FOR THE TREATMENT OF HEPATITIS C VIRUS” (Atea Pharmaceuticals, Inc., priority 2017, published 2021)

Legend:
[1] = target: human mitochondrial RNA-dependent RNA polymerase (POLRMT) (Homo sapiens, UniProt O00411); experiment: Incorporation of nucleotide analog triphosphates by human mitochondrial RNA polymerase; assay type: biochemical
Description: The incorporation of these analogs by human mitochondrial RNA-dependent RNA polymerase (POLRMT) were determined according to Arnold et al. (Sensitivity of Mitochondrial Transcription and Resistance of RNA Polymerase II Dependent Nuclear Transcription to Antiviral Ribonucleotides. PLoS Pathog., 2012, 8, e1003030).

[2] = Plasma profiles of Compound 2 metabolites in rats; conditions: male, Sprague-Dawley, rat, plasma, po, 500 mg/kg
Description: The results for a single 500 mg/kg dose in rats is shown in FIG. 17 and the results for a single 30, 100, or 300 mg/kg dose in monkeys is shown in FIG. 18.

[3] = Single ascending dose study of Compound 2 in healthy volunteers (Part A): safety, tolerability, pharmacokinetic; assay type: in vivo, human; conditions: both sexes, human, plasma, oral; for concentration at 24 h: read-out: C24h
Description: Compound 2 was tested in a single ascending dose (SAD) study to measure its safety, tolerability, and pharmacokinetic in healthy subjects (Part A). Part A was a randomized, double-blind, placebo-controlled SAD study. Healthy subjects in Part A received a single dose of Compound 2 or placebo in the fasting state. Subjects were confined to the clinic from Day −1 to Day 6.
Dosing in each cohort was staggered such that 2 subjects (1 active:1 placebo) were evaluated for 48 hours after dosing before the remainder of the cohort was dosed. Each cohort received Compound 2 in ascending order. Dosing of sequential cohorts occurred based on review of available safety data (through Day 5) and plasma pharmacokinetic data (through 24 h) of the prior cohort.
As pharmacokinetic and safety data emerged from prior cohorts, doses evaluated in Cohorts 3a-4a were adjusted by increments no more than 100 mg.
Healthy volunteers in the Part A portion of the study were male and female subjects between the ages of 18 and 65. Active and placebo recipients were pooled within each Part A cohort to preserve the study blind.
(§1) Pharmacokinetic of Compound 1 and nucleoside metabolite 1-7 were measured following the single dose of Compound 2. […] Values are reported as mean±SD, except or Tmax where median (range) is reported.

[4] = Single ascending dose study of Compound 2 in GT1-HCV infected patients (Part B): safety, tolerability, pharmacokinetic; assay type: in vivo, human; conditions: human; for Cmax / AUC / half-life / Tmax: in vivo; for Cmax / AUC / half-life / concentration at 24 h: GT1-HCV infected patients, mean±SD; for concentration at 24 h: plasma, oral, read-out: C24h
Description: Subjects in Part B received a single dose of Compound 2 in the fasting state. Patients were confined to the clinic from Day −1 to Day 6.
Part B was initiated after the safety (through Day 5) and plasma pharmacokinetic (through 24 h) data review from Cohort 3a in Part A. Available safety data (through Day 5) and pharmacokinetic data (through 24 h) was reviewed for the first cohort in Part B (Cohort 1b) before enrolling subsequent Part B cohorts. Subsequent Part B cohorts were only dosed following review of available safety and pharmacokinetic data from the respective doses in Part A as well as available safety (through Day 5) from the prior Part B cohorts.
Patients infected with HCV were treatment-naïve, non-cirrhotic GT1-infected subjects with a viral load of ≥5 log10 IU/mL.
as §1
Plasma exposure of Compound 1 was dose-related while exposure of metabolite 1-7 was dose-proportional.

[5] = Plasma profiles of Compound 2 metabolites in monkeys; assay type: in vivo, cynomolgus monkeys; conditions: cynomolgus monkey, plasma, po
HCV RNA (GT1a HCV) = conditions: after 1 day of 400 mg monotherapy, GT1a HCV-infected subjects; cited from earlier work
[6] = sofosbuvir 400 mg QD; cited from earlier work
[7] = incorporation by human mitochondrial RNA polymerase
[8] = 100 mg, Compound 2 100 mg, based on 24-hr profile
[9] = 300 mg, Compound 2 300 mg (first 300 mg line)
[10] = 300 mg, Compound 2 300 mg (first 300 mg line), based on 24-hr profile
[11] = 300 mg, Compound 2 300 mg (second 300 mg line)

human mitochondrial RNA-dependent RNA polymerase (POLRMT), sequence (O00411 42-1230): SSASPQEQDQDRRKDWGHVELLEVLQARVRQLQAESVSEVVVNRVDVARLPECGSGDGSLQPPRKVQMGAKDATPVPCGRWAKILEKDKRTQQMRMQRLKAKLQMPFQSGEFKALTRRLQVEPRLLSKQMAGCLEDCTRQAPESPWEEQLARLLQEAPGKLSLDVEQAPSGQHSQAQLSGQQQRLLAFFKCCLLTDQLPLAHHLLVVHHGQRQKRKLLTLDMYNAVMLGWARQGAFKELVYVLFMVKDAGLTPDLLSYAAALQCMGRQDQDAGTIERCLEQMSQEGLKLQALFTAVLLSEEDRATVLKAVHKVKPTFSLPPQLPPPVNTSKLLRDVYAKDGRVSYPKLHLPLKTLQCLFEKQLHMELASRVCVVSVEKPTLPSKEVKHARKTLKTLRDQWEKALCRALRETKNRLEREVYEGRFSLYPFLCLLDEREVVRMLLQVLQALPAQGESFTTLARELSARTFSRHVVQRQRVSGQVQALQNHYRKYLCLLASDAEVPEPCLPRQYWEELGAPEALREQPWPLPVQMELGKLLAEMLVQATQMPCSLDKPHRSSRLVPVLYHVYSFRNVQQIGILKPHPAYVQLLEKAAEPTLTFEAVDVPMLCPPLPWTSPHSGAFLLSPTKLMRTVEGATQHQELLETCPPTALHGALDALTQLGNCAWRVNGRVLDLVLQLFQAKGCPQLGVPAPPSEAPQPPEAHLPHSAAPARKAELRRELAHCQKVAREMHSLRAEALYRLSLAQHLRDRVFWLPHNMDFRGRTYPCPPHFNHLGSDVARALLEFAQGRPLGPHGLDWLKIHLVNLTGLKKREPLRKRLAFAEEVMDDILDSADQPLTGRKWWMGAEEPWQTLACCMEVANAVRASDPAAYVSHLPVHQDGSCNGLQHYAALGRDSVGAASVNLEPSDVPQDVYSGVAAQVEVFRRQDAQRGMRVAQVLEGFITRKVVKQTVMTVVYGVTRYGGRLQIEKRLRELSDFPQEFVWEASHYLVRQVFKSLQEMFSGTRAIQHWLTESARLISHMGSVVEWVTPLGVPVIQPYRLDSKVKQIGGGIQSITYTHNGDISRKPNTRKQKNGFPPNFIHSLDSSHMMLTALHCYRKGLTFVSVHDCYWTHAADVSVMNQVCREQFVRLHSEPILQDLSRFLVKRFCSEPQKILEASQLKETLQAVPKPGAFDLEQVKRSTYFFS

Question: Which results are given for C[C@@]1(F)[C@H](O)[C@@H](COP(=O)(O)OP(=O)(O)OP(=O)(O)O)O[C@H]1n1cnc2c(=O)[nH]c(N)nc21 [Metabolite 1-6]?
Answer: Incorporation of active triphosphate by human mitochondrial RNA polymerase [1]: poorlyincorporated; Relative Efficiency ([1]; (Kpol/Kd,app)analog nucleotide/(Kpol/Kd,app)natural nucleotide): 2.2 × 10^−6; Kpol [1, 7]: 0.0017 s⁻¹; Kpol/Kd,app [1, 7]: 8.3 M⁻¹ s⁻¹; Kd ([1]; incorporation by human mitochondrial RNA polymerase, read-out: Kd,app): 204 µM

Question: With C[C@@]1(F)[C@H](O)[C@@H](CO)O[C@H]1n1cnc2c(=O)[nH]c(N)nc21 [Metabolite 1-7, 2-amino-9-((2R,3R,4R,5R)-3-fluoro-4-hydroxy-5-(hydroxymethyl)-3-methyltetrahydrofuran-2-yl)-1,9-dihydro-6H-purin-6-one] as the compound, how does the AUC(0-t) [2] read?
Answer: Its AUC(0-t) is 9640 ng·h/mL.

Question: And the Cmax [2]?
Answer: The Cmax was 541 ng/mL.

Question: What about the Tmax [2] of the same compound?
Answer: The Tmax was 6 to 8 h.

Question: What about the half-life [2] of the same compound?
Answer: The half-life was 15.3 h.

Question: What about the AUC ([3]; 50 mg) of the same compound?
Answer: Its AUC is 285 ± 69.4 ng·h/mL.

Question: What about the Cmax ([3]; 50 mg) of the same compound?
Answer: Its Cmax is 27.9 ± 5.62 ng/mL.

Question: What about the Tmax ([3]; 50 mg) of the same compound?
Answer: The Tmax was 3.5 h.

Question: And the half-life ([3]; 50 mg)?
Answer: The half-life was 7.07 ± 4.59 h.

Question: What about the concentration at 24 h ([3]; 50 mg) of the same compound?
Answer: Its concentration at 24 h is 2.28 ± 0.95 ng/mL.

Question: What about the AUC ([3]; 100 mg) of the same compound?
Answer: Its AUC is 663 ± 242 ng·h/mL.

Question: And the Cmax ([3]; 100 mg)?
Answer: The Cmax was 56.6 ± 14 ng/mL.

Question: And the half-life ([3]; 100 mg)?
Answer: Its half-life is 17.7 ± 14.7 h.

Question: What about the concentration at 24 h ([3]; 100 mg) of the same compound?
Answer: The concentration at 24 h was 4.45 ± 1.87 ng/mL.

Question: What about the AUC ([3]; 200 mg) of the same compound?
Answer: Its AUC is 1520 ± 497 ng·h/mL.

Question: And the Cmax ([3]; 200 mg)?
Answer: Its Cmax is 111 ± 38.8 ng/mL.

Question: And the half-life ([3]; 200 mg)?
Answer: Its half-life is 15.9 ± 7.95 h.

Question: And the concentration at 24 h ([3]; 200 mg)?
Answer: The concentration at 24 h was 13.7 ± 5.09 ng/mL.

Question: What about the AUC ([3]; 400 mg) of the same compound?
Answer: Its AUC is 2340 ± 598 ng·h/mL.

Question: And the Cmax ([3]; 400 mg)?
Answer: The Cmax was 153 ± 49.4 ng/mL.

Question: And the half-life ([3]; 400 mg)?
Answer: The half-life was 15.6 ± 6.37 h.

Question: And the concentration at 24 h ([3]; 400 mg)?
Answer: The concentration at 24 h was 23.5 ± 6.31 ng/mL.

Question: What about the Cmax ([4]; 100 mg, Compound 2 100 mg) of the same compound?
Answer: The Cmax was 50.2 ± 15.4 ng/mL.

Question: And the AUC [4, 8]?
Answer: Its AUC is 538 ± 103 ng·h/mL.

Question: What about the half-life [4, 8] of the same compound?
Answer: Its half-life is 8.4 ± 4.3 h.

Question: What about the Tmax ([4]; 100 mg, Tmax) of the same compound?
Answer: Its Tmax is 6 h.

Question: And the Tmax ([4]; 300 mg)?
Answer: Its Tmax is 4.0 (3.0-6.0) h.

Question: What about the Cmax [4, 9] of the same compound?
Answer: The Cmax was 96.9 ± 38.9 ng/mL.

Question: What about the AUC [4, 10] of the same compound?
Answer: The AUC was 1130 ± 273 ng·h/mL.

Question: And the half-life [4, 10]?
Answer: The half-life was 8.1 ± 2.4 h.

Question: And the AUC [4, 11]?
Answer: Its AUC is 1420 ± 221 ng·h/mL.

Question: And the Cmax [4, 11]?
Answer: Its Cmax is 123 ± 16.6 ng/mL.

Question: What about the Tmax ([4]; 300 mg, Tmax) of the same compound?
Answer: The Tmax was 6 h.

Question: And the AUC ([4]; 400 mg, Compound 2 400 mg)?
Answer: Its AUC is 2130 ± 120 ng·h/mL.

Question: What about the Cmax ([4]; 400 mg, Compound 2 400 mg) of the same compound?
Answer: Its Cmax is 160 ± 36.7 ng/mL.

Question: What about the half-life ([4]; 400 mg, Compound 2 400 mg) of the same compound?
Answer: Its half-life is 11.6 ± 1.21 h.

Question: What about the AUC ([4]; 600 mg, Compound 2 600 mg) of the same compound?
Answer: Its AUC is 2180 ± 116 ng·h/mL.

Question: And the Cmax ([4]; 600 mg, Compound 2 600 mg)?
Answer: Its Cmax is 198 ± 19.3 ng/mL.

Question: What about the concentration at 24 h ([4]; 100 mg, Compound 2 100 mg) of the same compound?
Answer: Its concentration at 24 h is 3.6 ± 0.4 ng/mL.

Question: What about the concentration at 24 h [4, 9] of the same compound?
Answer: The concentration at 24 h was 10.9 ± 3.51 ng/mL.

Question: What about the concentration at 24 h [4, 11] of the same compound?
Answer: Its concentration at 24 h is 18 ± 8.83 ng/mL.

Question: What about the concentration at 24 h ([4]; 400 mg, Compound 2 400 mg) of the same compound?
Answer: Its concentration at 24 h is 22.5 ± 3.29 ng/mL.

Question: And the concentration at 24 h ([4]; 600 mg, Compound 2 600 mg)?
Answer: The concentration at 24 h was 25.8 ± 4.08 ng/mL.

Question: What about the AUC(0-t) ([5]; 30 mg/kg) of the same compound?
Answer: The AUC(0-t) was 1620 ng·h/mL.

Question: And the Cmax ([5]; 30 mg/kg)?
Answer: Its Cmax is 42.5 ng/mL.

Question: And the Tmax ([5]; 30 mg/kg)?
Answer: Its Tmax is 12 to 24 h.

Question: What about the half-life ([5]; 30 mg/kg) of the same compound?
Answer: The half-life was 11.5 h.

Question: And the AUC(0-t) ([5]; 100 mg/kg)?
Answer: The AUC(0-t) was 3030 ng·h/mL.

Question: What about the Cmax ([5]; 100 mg/kg) of the same compound?
Answer: Its Cmax is 131 ng/mL.

Question: What about the half-life ([5]; 100 mg/kg) of the same compound?
Answer: Its half-life is 15 h.

Question: And the AUC(0-t) ([5]; 300 mg/kg)?
Answer: The AUC(0-t) was 3660 ng·h/mL.

Question: And the Cmax ([5]; 300 mg/kg)?
Answer: The Cmax was 93.6 ng/mL.

Question: What about the Tmax ([5]; 300 mg/kg) of the same compound?
Answer: The Tmax was 4 to 24 h.

Question: What about the half-life ([5]; 300 mg/kg) of the same compound?
Answer: The half-life was 18.8 h.

Question: Which “HCV RNA reduction” value (HCV RNA (GT1a HCV)) does the source give for CC(C)OC(=O)[C@H](C)N[P@](=O)(OC[C@H]1O[C@@H](n2ccc(=O)[nH]c2=O)[C@](C)(F)[C@@H]1O)Oc1ccccc1 [sofosbuvir] here?
Answer: Its value is 2 log10 IU/mL.

Question: What about the “Steady-state trough concentration (C24,ss) of the nucleoside metabolite” value [6] of the same compound?
Answer: The value was “approximately 100 ng/mL”.
